Experimental data taken from the supplement of paper PMC10307832.

What was measured:
Assay in all cases: relative viability (nuclei count vs DMSO), 5 days (fraction); higher = more cells survive
Masitinib + AZD7762 = compound: Cc1ccc(NC(=O)c2ccc(CN3CCN(C)CC3)cc2)cc1Nc1nc(-c2cccnc2)cs1 [Masitinib] + NC(=O)Nc1cc(-c2cccc(F)c2)sc1C(=O)N[C@H]1CCCNC1 [AZD7762] (partner 0.2 µM)
Procedure, shortened: (§1)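 One day after seeding in 1536-well plates, lung cancer cell lines were dosed by pin tool. Dosing was either single-drug or a fixed anchor-drug dose plus five library-drug doses (not always all listed) in √10 steps. After 5 days, nuclei were stained in one fix-and-stain step and counted on 4× images, and relative viability is the nuclei count of treated wells over that of vehicle wells, given as the median of duplicate plates.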

[1] = compound: CC1=CC(=CC=C1)NC2=NC(=CS2)C3=CC=NC=C3 + CCNC(=O)c1noc(-c2cc(C(C)C)c(O)cc2O)c1-c1ccc(CN2CCOCC2)cc1 [Luminespib] (partner 0.01 µM)
Procedure, shortened: as §1

Masitinib + Pictilisib = compound: Cc1ccc(NC(=O)c2ccc(CN3CCN(C)CC3)cc2)cc1Nc1nc(-c2cccnc2)cs1 [Masitinib] + CS(=O)(=O)N1CCN(Cc2cc3nc(-c4cccc5[nH]ncc45)nc(N4CCOCC4)c3s2)CC1 [Pictilisib] (partner 1 µM)
Procedure, shortened: as §1

[2] = compound: CC1=CC(=CC=C1)NC2=NC(=CS2)C3=CC=NC=C3 + O=C(c1cc(Cc2n[nH]c(=O)c3ccccc23)ccc1F)N1CCN(C(=O)C2CC2)CC1 [Olaparib] (partner 8 µM)
Procedure, shortened: as §1

NCI-H1651
relative viability (Masitinib + AZD7762; first compound 0.01 µM): 0.49 | relative viability (Masitinib + AZD7762; first compound 0.03162 µM): 0.523 | relative viability (Masitinib + AZD7762; first compound 0.1 µM): 0.485 | relative viability (Masitinib + AZD7762; first compound 0.3162 µM): 0.475 | relative viability (Masitinib + AZD7762; first compound 1 µM): 0.471 | relative viability ([1]; first compound 0.08 µM): 1.16 | relative viability ([1]; first compound 0.253 µM): 0.893 | relative viability ([1]; first compound 0.8 µM): 0.875 | relative viability ([1]; first compound 2.53 µM): 0.706 | relative viability ([1]; first compound 8 µM): 0.74 | relative viability (Masitinib + Pictilisib; first compound 0.01 µM): 0.529 | relative viability (Masitinib + Pictilisib; first compound 0.03162 µM): 0.585 | relative viability (Masitinib + Pictilisib; first compound 0.1 µM): 0.543 | relative viability (Masitinib + Pictilisib; first compound 0.3162 µM): 0.622 | relative viability (Masitinib + Pictilisib; first compound 1 µM): 0.505 | relative viability ([2]; first compound 0.08 µM): 0.185 | relative viability ([2]; first compound 0.253 µM): 0.179 | relative viability ([2]; first compound 0.8 µM): 0.166 | relative viability ([2]; first compound 2.53 µM): 0.177 | relative viability ([2]; first compound 8 µM): 0.186

LOU-NH91
relative viability (Masitinib + AZD7762; first compound 0.01 µM): 0.748 | relative viability (Masitinib + AZD7762; first compound 0.03162 µM): 0.628 | relative viability (Masitinib + AZD7762; first compound 0.1 µM): 0.799 | relative viability (Masitinib + AZD7762; first compound 0.3162 µM): 0.642 | relative viability (Masitinib + AZD7762; first compound 1 µM): 0.548 | relative viability ([1]; first compound 0.08 µM): 0.319 | relative viability ([1]; first compound 0.253 µM): 0.351 | relative viability ([1]; first compound 0.8 µM): 0.33 | relative viability ([1]; first compound 2.53 µM): 0.297 | relative viability ([1]; first compound 8 µM): 0.314 | relative viability (Masitinib + Pictilisib; first compound 0.01 µM): 0.497 | relative viability (Masitinib + Pictilisib; first compound 0.03162 µM): 0.499 | relative viability (Masitinib + Pictilisib; first compound 0.1 µM): 0.492 | relative viability (Masitinib + Pictilisib; first compound 0.3162 µM): 0.432 | relative viability (Masitinib + Pictilisib; first compound 1 µM): 0.501 | relative viability ([2]; first compound 0.08 µM): 0.8 | relative viability ([2]; first compound 0.253 µM): 0.862 | relative viability ([2]; first compound 0.8 µM): 0.889 | relative viability ([2]; first compound 2.53 µM): 0.887 | relative viability ([2]; first compound 8 µM): 0.855

NCI-H3122
relative viability (Masitinib + AZD7762; first compound 0.01 µM): 0.797 | relative viability (Masitinib + AZD7762; first compound 0.03162 µM): 0.994 | relative viability (Masitinib + AZD7762; first compound 0.1 µM): 0.993 | relative viability (Masitinib + AZD7762; first compound 0.3162 µM): 0.921 | relative viability (Masitinib + AZD7762; first compound 1 µM): 0.984 | relative viability ([1]; first compound 0.08 µM): 0.125 | relative viability ([1]; first compound 0.253 µM): 0.0766 | relative viability ([1]; first compound 0.8 µM): 0.101 | relative viability ([1]; first compound 2.53 µM): 0.0836 | relative viability ([1]; first compound 8 µM): 0.105 | relative viability (Masitinib + Pictilisib; first compound 0.01 µM): 0.579 | relative viability (Masitinib + Pictilisib; first compound 0.03162 µM): 0.623 | relative viability (Masitinib + Pictilisib; first compound 0.1 µM): 0.595 | relative viability (Masitinib + Pictilisib; first compound 0.3162 µM): 0.677 | relative viability (Masitinib + Pictilisib; first compound 1 µM): 0.574 | relative viability ([2]; first compound 0.08 µM): 0.578 | relative viability ([2]; first compound 0.253 µM): 0.591 | relative viability ([2]; first compound 0.8 µM): 0.548 | relative viability ([2]; first compound 2.53 µM): 0.587 | relative viability ([2]; first compound 8 µM): 0.457

LCLC-97TM1
relative viability (Masitinib + AZD7762; first compound 0.01 µM): 0.235 | relative viability (Masitinib + AZD7762; first compound 0.03162 µM): 0.288 | relative viability (Masitinib + AZD7762; first compound 0.1 µM): 0.229 | relative viability (Masitinib + AZD7762; first compound 0.3162 µM): 0.191 | relative viability (Masitinib + AZD7762; first compound 1 µM): 0.229 | relative viability ([1]; first compound 0.08 µM): 0.689 | relative viability ([1]; first compound 0.253 µM): 0.794 | relative viability ([1]; first compound 0.8 µM): 0.839 | relative viability ([1]; first compound 2.53 µM): 0.816 | relative viability ([1]; first compound 8 µM): 0.825 | relative viability (Masitinib + Pictilisib; first compound 0.01 µM): 0.156 | relative viability (Masitinib + Pictilisib; first compound 0.03162 µM): 0.172 | relative viability (Masitinib + Pictilisib; first compound 0.1 µM): 0.287 | relative viability (Masitinib + Pictilisib; first compound 0.3162 µM): 0.218 | relative viability (Masitinib + Pictilisib; first compound 1 µM): 0.2 | relative viability ([2]; first compound 0.08 µM): 0.419 | relative viability ([2]; first compound 0.253 µM): 0.304 | relative viability ([2]; first compound 0.8 µM): 0.343 | relative viability ([2]; first compound 2.53 µM): 0.411 | relative viability ([2]; first compound 8 µM): 0.379

NCI-H647
relative viability (Masitinib + AZD7762; first compound 0.01 µM): 0.587 | relative viability (Masitinib + AZD7762; first compound 0.03162 µM): 0.477 | relative viability (Masitinib + AZD7762; first compound 0.1 µM): 0.535 | relative viability (Masitinib + AZD7762; first compound 0.3162 µM): 0.502 | relative viability (Masitinib + AZD7762; first compound 1 µM): 0.469 | relative viability ([1]; first compound 0.08 µM): 0.114 | relative viability ([1]; first compound 0.253 µM): 0.162 | relative viability ([1]; first compound 0.8 µM): 0.177 | relative viability ([1]; first compound 2.53 µM): 0.313 | relative viability ([1]; first compound 8 µM): 0.338 | relative viability (Masitinib + Pictilisib; first compound 0.01 µM): 0.424 | relative viability (Masitinib + Pictilisib; first compound 0.03162 µM): 0.356 | relative viability (Masitinib + Pictilisib; first compound 0.1 µM): 0.44 | relative viability (Masitinib + Pictilisib; first compound 0.3162 µM): 0.333 | relative viability (Masitinib + Pictilisib; first compound 1 µM): 0.321 | relative viability ([2]; first compound 0.08 µM): 0.477 | relative viability ([2]; first compound 0.253 µM): 0.528 | relative viability ([2]; first compound 0.8 µM): 0.55 | relative viability ([2]; first compound 2.53 µM): 0.523 | relative viability ([2]; first compound 8 µM): 0.305

NCI-H838
relative viability (Masitinib + AZD7762; first compound 0.01 µM): 0.818 | relative viability (Masitinib + AZD7762; first compound 0.03162 µM): 0.883 | relative viability (Masitinib + AZD7762; first compound 0.1 µM): 0.913 | relative viability (Masitinib + AZD7762; first compound 0.3162 µM): 0.845 | relative viability (Masitinib + AZD7762; first compound 1 µM): 0.892 | relative viability ([1]; first compound 0.08 µM): 0.38 | relative viability ([1]; first compound 0.253 µM): 0.318 | relative viability ([1]; first compound 0.8 µM): 0.324 | relative viability ([1]; first compound 2.53 µM): 0.316 | relative viability ([1]; first compound 8 µM): 0.25 | relative viability (Masitinib + Pictilisib; first compound 0.01 µM): 0.477 | relative viability (Masitinib + Pictilisib; first compound 0.03162 µM): 0.387 | relative viability (Masitinib + Pictilisib; first compound 0.1 µM): 0.512 | relative viability (Masitinib + Pictilisib; first compound 0.3162 µM): 0.396 | relative viability (Masitinib + Pictilisib; first compound 1 µM): 0.432 | relative viability ([2]; first compound 0.08 µM): 0.567 | relative viability ([2]; first compound 0.253 µM): 0.545 | relative viability ([2]; first compound 0.8 µM): 0.714 | relative viability ([2]; first compound 2.53 µM): 0.685 | relative viability ([2]; first compound 8 µM): 0.521

H3255
relative viability (Masitinib + AZD7762; first compound 0.01 µM): 0.581 | relative viability (Masitinib + AZD7762; first compound 0.03162 µM): 0.948 | relative viability (Masitinib + AZD7762; first compound 0.1 µM): 0.764 | relative viability (Masitinib + AZD7762; first compound 0.3162 µM): 0.705 | relative viability (Masitinib + AZD7762; first compound 1 µM): 0.885 | relative viability ([1]; first compound 0.08 µM): 0.902 | relative viability ([1]; first compound 0.253 µM): 0.681 | relative viability ([1]; first compound 0.8 µM): 0.905 | relative viability ([1]; first compound 2.53 µM): 0.702 | relative viability ([1]; first compound 8 µM): 0.826 | relative viability (Masitinib + Pictilisib; first compound 0.01 µM): 0.489 | relative viability (Masitinib + Pictilisib; first compound 0.03162 µM): 0.501 | relative viability (Masitinib + Pictilisib; first compound 0.1 µM): 0.542 | relative viability (Masitinib + Pictilisib; first compound 0.3162 µM): 0.456 | relative viability (Masitinib + Pictilisib; first compound 1 µM): 0.407 | relative viability ([2]; first compound 0.08 µM): 0.542 | relative viability ([2]; first compound 0.253 µM): 0.569 | relative viability ([2]; first compound 0.8 µM): 0.562 | relative viability ([2]; first compound 2.53 µM): 0.533 | relative viability ([2]; first compound 8 µM): 0.475

NCI-H1793
relative viability (Masitinib + AZD7762; first compound 0.01 µM): 0.473 | relative viability (Masitinib + AZD7762; first compound 0.03162 µM): 0.348 | relative viability (Masitinib + AZD7762; first compound 0.1 µM): 0.434 | relative viability (Masitinib + AZD7762; first compound 0.3162 µM): 0.283 | relative viability (Masitinib + AZD7762; first compound 1 µM): 0.202 | relative viability ([1]; first compound 0.08 µM): 0.182 | relative viability ([1]; first compound 0.253 µM): 0.177 | relative viability ([1]; first compound 0.8 µM): 0.177 | relative viability ([1]; first compound 2.53 µM): 0.202 | relative viability ([1]; first compound 8 µM): 0.344 | relative viability (Masitinib + Pictilisib; first compound 0.01 µM): 0.455 | relative viability (Masitinib + Pictilisib; first compound 0.03162 µM): 0.318 | relative viability (Masitinib + Pictilisib; first compound 0.1 µM): 0.427 | relative viability (Masitinib + Pictilisib; first compound 0.3162 µM): 0.381 | relative viability (Masitinib + Pictilisib; first compound 1 µM): 0.338 | relative viability ([2]; first compound 0.08 µM): 0.889 | relative viability ([2]; first compound 0.253 µM): 0.647 | relative viability ([2]; first compound 0.8 µM): 0.799 | relative viability ([2]; first compound 2.53 µM): 0.68 | relative viability ([2]; first compound 8 µM): 0.81
